Laboratory results as given in patent publication US9815815B2, “Non-selective kinase inhibitors” (GILEAD SCIENCES, INC., priority 2013, dated 2017).
Marks after values point to notes of the source that are not given here.

How the values were obtained:
[1] = test system: AKT; assay: NanoPro immunoassay pAKT/AKT in lung extracts, MCT+PN model; format: in vivo, rat
[2] = test system: rat MCT model; assay: PK10453 dose response study in the rat MCT model; format: in vivo
Experimental: Efficacy study in the rat MCT model—PK10453 (Structure 2) dose response study in the rat MCT Model. Male Sprague Dawley rats received MCT 60 mg/kg IPMCT, and after 3 weeks, PK10453 (Structure 2) or vehicle control were administered by inhalation. Four groups were studied: vehicle control (4 min exposure) and three treatment groups of PK10453 (Structure 2) with exposure times 2 min (D2), 4 min (D4), or 8 min (D8) three times a day. These regimens were administered for two weeks. The vehicle consisted of aerosolized 1M tosylic acid neutralized with ammonia vapor as described above. The pH of a solution prepared by dissolving captured aerosol particles in water was measured for every dose and was consistently in the range of 5.5-6.0. At the end of the study, the RV systolic pressure was measured, and the heart chambers dissected and weighed.

[3] = test system: PDGFAA stimulated phosphorylation of ERK1 and ERK2; assay: PDGFAA stimulated phosphorylation of ERK1 and ERK2 in human fetal lung fibroblasts; format: cell-based; details: 1 uM
[4] = test system: ERK1/2; assay: NanoPro immunoassay pERK1/2 in lung homogenates, MCT+PN model; format: in vivo, rat; details: D4 and D8 groups compared to vehicle
Excerpt: Histology and morphometric analysis. At the end of the study, the heart and lungs were removed from ventilated animals under general anesthesia. Heparinized saline was infused under pressure through the main pulmonary artery. The right upper lobe was immediately tied off and placed in liquid nitrogen for Western blot and NanoPro 100 ™ assay analysis. The heart was removed, and the RV free wall, interventricular septum and LV free wall dissected and weighed. Buffered formalin (10%) was infused under pressure both through the pulmonary artery and the trachea. Morphometric analysis was performed on H&E stained formalin fixed tissue sectioned at 8 μm. The media area and lumen area of pulmonary arterioles were measured with Image J software by a technician blinded to treatment group. Measurements were made on 20 pulmonary arterioles per section. The ratio of the lumen area to the total media area was determined This ratio normalizes the variation in total pulmonary arteriole area. […]
NanoPro Immunoassay™. Relative differences in phosphorylated ERK1/2 and STAT isoforms were measured with a NanoPro100™ immunoassay system (Protein Simple/Cell Biosciences, CA). […]

[5] = test system: PDGFBB stimulated AKT phosphorylation; assay: In cell Western (ICW), PDGFBB stimulated AKT phosphorylation in human fetal lung fibroblasts; format: cell-based; details: comparison in words
Experimental: In cell Western (ICW). […] HLFs were maintained in subculture at no more than 6 passages in DMEM with 5% FBS and 4 mM Glutamax at 37° C., 5% CO2. HLFs were plated and grown to 70-80% confluence in 96 well plates then serum-starved for 48 hours. […] Antibodies were detected using IRDye 680LT goat anti-mouse IgG and IRDye 800W goat a-rabbit IgG conjugated antibodies. After washing, the signal was quantified using an Odyssey Infrared Imaging System (LI-COR). Phosphoprotein signal (800 nm) was normalized to total protein signal (700 nm) acquired from each well and experimental duplicates on same plate were averaged and reported.

[6] = Pharmacokinetic study, lung and plasma levels after inhalation or IV; format: in vivo, rat
Experimental: Pharmacokinetic studies. PK10453 (Structure 2) was administered intravenously or by inhalation to animals, which were then euthanized at time 0, 10, 20, and 60 min (n=3 each time point). Blood samples were taken by cardiac puncture, and the lungs excised. The lungs were homogenized and PK10453 (Structure 2) extracted with a 1:3 mixture of acetonitrile:methanol. Similarly, plasma was extracted with a 1:3 mixture of acetonitrile:methanol. Drug was assayed by LC MS/MS (PharmOptima Inc., Portage Mich.). First order exponential curves were fit to the data with Excel. AUC was determined with the trapezoidal method of integration.
For the pharmacokinetic study, the concentration of PK10453 (Structure 2) in lung when administered by inhalation was compared to the concentration achieved with IV administration. As described in Morén “Aerosols in medicine : principles, diagnosis, and therapy.” Amsterdam; New York: Elsevier. (1993) and Phalen et al., “Inhalation exposure methodology.” Environ Health Perspect 56:23-34 (1984)), it is possible to estimate the pharmacokinetic advantage of inhalation relative to intravenous administration, Rd, by comparing the AUC of a plot of the drug concentration as a function of time following respiratory and IV administration: Rd=[(AUClung/AUCplasma)respiratory]/[(AUClung/AUCplasma)IV]

[7] = Systemic blood pressure study in ambulatory MCT treated rats; format: in vivo, rat; details: inhalation
Experimental: Systemic blood pressure study. The effect of PK10453 (Structure 2) on systemic BP was studied in ambulatory MCT treated rats with DSI PAC40 transmitters implanted in the descending aorta. […] Blood pressure was recorded before each morning dose.

[8] = Two-chamber plethysmography in the rat MCT+PN model; format: in vivo; parameters: SRaw: unit not given beside the values
Experimental: Plethysmography. Plethysmography was performed with an EMKA dual chamber plethysmograph and IOX software. Parameters measured included breathing frequency, tidal volume, minute ventilation, peak inspiratory and expiratory flow, and airway resistance (SRaw). Animals were acclimatized to the plethysmograph for three days prior to first data acquisition. Measurements were made prior to the first dose of drug and at the end of the study.

Question: With `COc1cc(-c2cncc(N[C@@H](C)c3cccc(NC(=O)c4cncc(C)c4)c3)n2)ccc1O` [PK10453, (S)-N-(3-(1-((6-(4-hydroxy-3-methoxyphenyl)pyrazin-2yl)amino)ethyl)phenyl)-5-methylnicotinamide] as the molecule, how does the “pAKT(Thr308)/AKT ratio in lung extracts” value ([1]; D4, D8 vs vehicle) read?
Answer: Its value is “not significantly different”.

Question: What about the “pAKT(Ser473)/AKT ratio in lung extracts” value ([1]; treated vs vehicle) of the same molecule?
Answer: The value was “significant reduction”.

Question: What about the “reduction in RVSP compared to the vehicle treated group” value ([2]; D4) of the same molecule?
Answer: Its value is 44%.

Question: And the “reduction in RVSP compared to the vehicle treated group” value ([2]; D8)?
Answer: Its value is 54%.

Question: What about the “RV hypertrophy, ratio (RV+IVS)/LV weight” value ([2]; inhalation, two weeks, in words) of the same molecule?
Answer: The value was “significant reduction”.

Question: What about the “decrease of RV systolic pressure” value ([2]; rat MCT model, inhalation) of the same molecule?
Answer: The value was 50%.

Question: What about the “decreasing PDGF AA stimulated ppERK1 and ppERK2 formation” value [3] of the same molecule?
Answer: The value was “equally effective”.

Question: And the “pERK1/ERK1 in lung homogenates” value [4]?
Answer: The value was “significant reductions”.

Question: And the “ppERK1/ERK1 in lung homogenates” value [4]?
Answer: Its value is “significant reductions”.

Question: And the “IC50 for inhibiting PDGFBB stimulated AKT phosphorylation, compared to imatinib” value [5]?
Answer: Its value is “lower IC50 concentrations compared to imatinib”.

Question: What about the “Rd = [(AUClung/AUCplasma)respiratory]/[(AUClung/AUCplasma)IV]” value ([6]; inhalation relative to IV) of the same molecule?
Answer: Its value is 44.6.

Question: What about the “advantage of inhaled compared to IV administration” value ([6]; lung/plasma AUC ratio) of the same molecule?
Answer: Its value is 45 fold.

Question: What about the “effect on systemic BP, in words” value [7] of the same molecule?
Answer: The value was “did not have an adverse effect”.

Question: What about the MV ([8]; day 1, D4, mean) of the same molecule?
Answer: The MV was 223.24 mL/min.

Question: What about the PEF ([8]; day 1, D4, mean) of the same molecule?
Answer: The PEF was 11.04.

Question: And the PIF ([8]; day 1, D4, mean)?
Answer: Its PIF is 9.82.

Question: What about the SRaw ([8]; day 1, D4, mean) of the same molecule?
Answer: Its SRaw is 39.73.

Question: And the TV ([8]; day 1, D4, mean)?
Answer: The TV was 1.00 mL.

Question: And the f ([8]; day 1, D4, mean)?
Answer: Its f is 224.68 breaths per minute.

Question: What about the MV ([8]; day 1, D8, mean) of the same molecule?
Answer: Its MV is 174.68 mL/min.

Question: What about the PEF ([8]; day 1, D8, mean) of the same molecule?
Answer: Its PEF is 9.43.

Question: What about the PIF ([8]; day 1, D8, mean) of the same molecule?
Answer: Its PIF is 8.54.

Question: And the SRaw ([8]; day 1, D8, mean)?
Answer: Its SRaw is 36.01.

Question: What about the TV ([8]; day 1, D8, mean) of the same molecule?
Answer: Its TV is 0.74 mL.

Question: What about the f ([8]; day 1, D8, mean) of the same molecule?
Answer: Its f is 259.13 breaths per minute.

Question: What about the MV ([8]; day 15, D4, mean) of the same molecule?
Answer: Its MV is 176.12§.

Question: What about the PEF ([8]; day 15, D4, mean) of the same molecule?
Answer: The PEF was 9.33*.

Question: What about the PIF ([8]; day 15, D4, mean) of the same molecule?
Answer: The PIF was 7.82*.

Question: What about the SRaw ([8]; day 15, D4, mean) of the same molecule?
Answer: The SRaw was 33.09.

Question: What about the TV ([8]; day 15, D4, mean) of the same molecule?
Answer: The TV was 0.85.

Question: What about the f ([8]; day 15, D4, mean) of the same molecule?
Answer: Its f is 217.12 breaths per minute.

Question: And the MV ([8]; day 15, D8, mean)?
Answer: The MV was 128.49.

Question: What about the PEF ([8]; day 15, D8, mean) of the same molecule?
Answer: Its PEF is 6.64.

Question: And the PIF ([8]; day 15, D8, mean)?
Answer: The PIF was 6.06.

Question: And the SRaw ([8]; day 15, D8, mean)?
Answer: The SRaw was 49.26.

Question: What about the TV ([8]; day 15, D8, mean) of the same molecule?
Answer: Its TV is 0.63.

Question: And the f ([8]; day 15, D8, mean)?
Answer: The f was 232.11 breaths per minute.

Question: What about the “effect on lung function, in words” value ([8]; inhaled, 2-wk course) of the same molecule?
Answer: Its value is “did not adversely affect lung function”.
